Literature values as cited in US20200354441A1, “TREATMENT OF DISORDERS” (Apellis Pharmaceuticals, Inc., priority 2017, published 2020).

Legend:
[1] = system: complement activation (alternative pathway); settings: alternative pathway-mediated erythrocyte lysis assay (WO2004/026328)
complement activation = settings: relative to compstatin amidated at the C-terminus; published data (WO2004/026328, WO2007044668, Mallik 2005, Katragadda 2006)

IC50 [1] [µM]	Molecule	Activity over compstatin (complement activation) [× more]
12	CC[C@H](C)[C@H](N)C(=O)N[C@H]1CSSC[C@@H](C(=O)N[C@H](C(N)=O)[C@@H](C)O)NC(=O)[C@H](CCCN=C(N)N)NC(=O)[C@H](Cc2cnc[nH]2)NC(=O)[C@H](Cc2cnc[nH]2)NC(=O)CNC(=O)[C@H](Cc2c[nH]c3ccccc23)NC(=O)[C@H](CC(=O)O)NC(=O)[C@H](CCC(N)=O)NC(=O)[C@H](C(C)C)NC(=O)[C@H](C(C)C)NC1=O [Compstatin, H-ICVVQDWGHHRCT-CONH2]	–
–	Ac-ICVVQDWGHHRCT-CONH2 [Ac-compstatin]	3
–	H-GICV(6fW)QD(6fW)GAHRCTN-COOH (6-fluoro-Trp, C-terminal acid) [+G/V4(6fW)/W7(6fW)H9A+N-OH]	126
–	Ac-ICVWQDWGAHRCdT-COOH [Ac-V4W/H9A/T13dT -OH]	55
–	Ac-ICVWQD(5fW)GAHRCT-CONH2 [Ac-V4W/W7(5fW)/H9A]	121
